# Assay results as given in patent US20170052170A1, “NOVEL CELL LINES AND METHODS” (priority 2009, published 2017).
# Biological target: T1, sweet taste receptor (endogenously expressed T1R2/T1R3) (Homo sapiens, UniProt Q7RTX0+Q8TE23)
# T1 construct: endogenous in cells; host or cells: HuTu (ATCC HTB-40), H716 (ATCC CCL-251), HEK 293T (ATCC CRL-11268); some with prior UV treatment
# T1 sequence (Q8TE23 20-839): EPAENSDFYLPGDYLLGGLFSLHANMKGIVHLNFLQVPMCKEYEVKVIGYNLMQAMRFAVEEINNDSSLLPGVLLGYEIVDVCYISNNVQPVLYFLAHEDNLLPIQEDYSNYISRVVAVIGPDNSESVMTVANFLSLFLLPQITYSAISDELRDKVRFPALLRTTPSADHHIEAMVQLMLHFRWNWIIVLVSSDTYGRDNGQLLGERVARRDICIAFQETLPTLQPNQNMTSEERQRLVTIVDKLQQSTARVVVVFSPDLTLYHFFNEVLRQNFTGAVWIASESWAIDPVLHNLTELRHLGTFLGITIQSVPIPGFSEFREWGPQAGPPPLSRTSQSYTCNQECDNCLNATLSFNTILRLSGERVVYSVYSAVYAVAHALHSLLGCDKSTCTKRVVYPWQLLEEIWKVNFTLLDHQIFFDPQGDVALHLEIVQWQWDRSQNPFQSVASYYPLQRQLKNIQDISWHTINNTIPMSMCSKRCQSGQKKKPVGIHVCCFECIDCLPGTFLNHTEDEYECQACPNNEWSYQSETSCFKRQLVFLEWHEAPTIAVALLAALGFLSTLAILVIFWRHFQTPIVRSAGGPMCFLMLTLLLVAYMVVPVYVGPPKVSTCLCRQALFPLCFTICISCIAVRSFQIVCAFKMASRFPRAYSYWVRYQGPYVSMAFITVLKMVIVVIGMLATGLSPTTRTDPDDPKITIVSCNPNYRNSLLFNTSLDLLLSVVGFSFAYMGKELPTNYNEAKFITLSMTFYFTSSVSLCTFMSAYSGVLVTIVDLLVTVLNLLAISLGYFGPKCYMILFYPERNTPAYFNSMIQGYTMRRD
# T1 sequence (Q7RTX0 21-852): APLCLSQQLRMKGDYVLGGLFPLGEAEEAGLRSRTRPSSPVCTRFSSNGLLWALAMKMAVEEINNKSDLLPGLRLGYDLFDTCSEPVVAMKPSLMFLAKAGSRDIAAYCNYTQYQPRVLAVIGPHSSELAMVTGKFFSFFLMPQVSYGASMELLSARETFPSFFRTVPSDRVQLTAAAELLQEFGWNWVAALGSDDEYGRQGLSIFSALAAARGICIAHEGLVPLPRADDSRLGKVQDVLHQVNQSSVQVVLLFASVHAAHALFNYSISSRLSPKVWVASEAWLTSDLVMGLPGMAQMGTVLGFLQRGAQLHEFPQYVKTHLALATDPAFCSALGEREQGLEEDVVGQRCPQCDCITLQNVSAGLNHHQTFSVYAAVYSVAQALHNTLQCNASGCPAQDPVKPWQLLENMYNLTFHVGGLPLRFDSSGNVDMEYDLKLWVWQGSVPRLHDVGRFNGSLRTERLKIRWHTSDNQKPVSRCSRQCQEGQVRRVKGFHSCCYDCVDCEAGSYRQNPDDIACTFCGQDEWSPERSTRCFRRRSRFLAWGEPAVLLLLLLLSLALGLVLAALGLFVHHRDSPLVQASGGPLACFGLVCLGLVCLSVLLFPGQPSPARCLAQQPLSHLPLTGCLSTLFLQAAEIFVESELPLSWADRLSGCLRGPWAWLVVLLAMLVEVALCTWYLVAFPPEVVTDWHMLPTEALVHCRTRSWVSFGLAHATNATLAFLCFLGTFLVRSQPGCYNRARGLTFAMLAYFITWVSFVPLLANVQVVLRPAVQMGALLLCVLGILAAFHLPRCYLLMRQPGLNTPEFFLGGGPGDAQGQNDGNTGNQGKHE
# Test: calcium flux response to fructose of cells cultured from individual isolated HuTu, H716 and 293T cells
# Format: cell-based
# Conditions: fructose final concentration 15 mM, control response subtracted
# Method: FIGS. 28 A-C depict representative traces of the functional cell-based response of cells of the invention to the addition of fructose (to a final concentration of 15 mM) compared to background. Cells cultured from individual isolated cells were tested (black traces) compared to control cells (gray traces). […] The cell-based assay was designed to report calcium flux using a fluorescent calcium signaling dye. Fluorescent assay response is plotted along the Y-axis and time is indicated along the X-axis. Arrows indicate the timepoint at which fructose was added. FIG. 28A depicts traces from cells cultured from an individual HuTu cell compared to control. FIG. 28B depicts traces from cells cultured from an individual H716 cell compared to control. FIG. 28C depicts traces from cells cultured from an individual 293T cell compared to control.
# In a specific aspect, provided herein is a method for isolating a cell that endogenously expresses a sweet taste receptor T1R2 subunit and/or sweet taste receptor T1R3 subunit, wherein the method comprises the steps of: • a) providing a population of cells; • b) introducing into the cells a signaling probe or molecular beacon that detects expression of T1R2 and/or introducing into the cells a molecular beacon that detects expression of T1R3; and • c) isolating cells that express a sweet taste receptor T1R2 subunit and/or sweet taste receptor T1R3 subunit. […]
smiles,measurement,value
O=C(CO)[C@@H](O)[C@H](O)[C@H](O)CO [fructose],functional cell-based (calcium flux) response compared to control cells,higher response
